In PubChem BioAssay (NCI):
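Values below derive from 48-hour exposures of cells grown in 96-well plates, with endpoints linearly interpolated between the two concentrations bracketing the appropriate inhibition level. Definition used: TGI = concentration required for complete inhibition of growth.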

Columns and labels:
Experiment in all cases: growth of human tumour cells (NCI), 48 h
[1] = test system: HOP-92 NSCLC
[2] = test system: NCI-H460 lung
[3] = test system: 786-0 renal
[4] = test system: TK-10 renal
[5] = test system: SNB-19 CNS
[6] = test system: UACC-62 melanoma
[7] = test system: OVCAR-8 ovarian
[8] = test system: U251 CNS
[9] = test system: NCI-H226 lung
[10] = test system: SF-295 CNS

| Compound | TGI [1] [µM] | TGI [2] [µM] | TGI [3] [µM] | TGI [4] [µM] | TGI [5] [µM] | TGI [6] [µM] | TGI [7] [µM] | TGI [8] [µM] | TGI [9] [µM] | TGI [10] [µM] |
| --- | --- | --- | --- | --- | --- | --- | --- | --- | --- | --- |
| CC(=O)Nc1ncc(Sc2ccccc2C(=O)O)s1 | > 100 | > 100 | > 100 | > 100 | > 100 | > 100 | > 100 | > 100 | > 100 | > 100 |
| O=C(c1cc(Cl)cc(Cl)c1)N(C(=S)OC12CC3CC(CC(C3)C1)C2)c1ccccc1 | > 100 | > 100 | > 100 | > 100 | > 100 | > 100 | > 100 | > 100 | > 100 | > 100 |
| CC(=O)C1=C(N=[N+]=[N-])c2cccc3cccc(c23)C1=O | 42.8 | 56.3 | 33.7 | 36.1 | 91.7 | 34.2 | 65.8 | 66 | 64.2 | 61.7 |
